Measurements: patent EP2910557A1, “Enantiopure tetrasubstituted pyrrolidines as scaffolds for proteasome inhibitors and medicinal applications thereof” (Ikerchem, S.L., priority 2014, dated 2015)

Target: T1, Human erythrocyte 20S proteasome (Homo sapiens, UniProt P28074)
T1 construct: Enzyme: Human erythrocyte 20S proteasome; from tissue; host or cells: human erythrocytes
Test: In vitro enzymatic assay of proteasome inhibitory activity (Suc-Leu-Leu-Val-Tyr-AMC substrate)
Type: biochemical
Conditions: for inhibition at 1 µM: Concentration 1000 nM; for IC50: human erythrocyte 20S proteasome, 10 µM Suc-Leu-Leu-Val-Tyr-AMC, 37°C; for inhibition at 0.5 µM: Concentration 500 nM
Method: Example 20: In vitro enzymatic assay of proteasome inhibitory activity.
Substrate: Suc-Leu-Leu-Val-Tyr-AMC
Assay buffer: 250 mM HEPES, pH 7.5, 0.5 mM EDTA, 0.03% SDS, 0.05% Igepal CA-630.
Enzyme: Human erythrocyte 20S proteasome
In vitro proteasome inhibitory activity of the compounds of the invention is evaluated by spectrofluorimetric quantitation of AMC. Stock solutions of compounds of the invention are prepared in dimethyl sulphoxide (DMSO). Test compound and/or vehicle is preincubated with […] enzyme (human erythrocyte 20S proteasome) in modified HEPES buffer pH 7.5 and 1% final concentration of DMSO for 15 minutes at 37°C. The reaction is initiated by addition of 10 µM Suc-Leu-Leu-Val-Tyr-AMC for another 30 minutes incubation period at 37°C. Determination of the release of AMC is read spectrophotometrically (excitation, 380 nm; emission, 460 nm). IC50 values are determined by a non-linear, least squares regression analysis using MathlQTM (ID Business Solutions Ltd., UK).

| SMILES | inhibition at 1 µM [%] | IC50 [µM] | inhibition at 0.5 µM [%] | inhibition at 0.05 µM (Concentration 50 nM) [%] | inhibition at 0.1 µM (Concentration 100 nM) [%] |
| --- | --- | --- | --- | --- | --- |
| CC(C)C[C@H](NC(=O)[C@H]1N[C@@H](c2ccccc2)[C@H]([N+](=O)[O-])[C@H]1c1ccccc1)B(O)O [Example 2, (R)-3-methyl-1-((2S,3S,4R,5S)-4-nitro-3,5-diphenylpyrrolidine-2-carboxamido)butylboronic acid] | 70 | 0.43 | – | – | – |
| Cc1ccc([C@H]2[C@H]([N+](=O)[O-])[C@@H](c3ccccc3)N[C@H]2C(=O)N[C@@H](CC(C)C)B(O)O)cc1 [Example 5, (R)-3-methyl-1-((2R,3R,4S,5R)-4-nitro-5-phenyl-3-p-tolylpyrrolidine-2-carboxamido)butylboronic acid] | – | 0.078 | 77 | – | – |
| CC(C)C[C@H](NC(=O)[C@@H]1N[C@H](c2ccccc2)[C@@H]([N+](=O)[O-])[C@@H]1c1ccc([N+](=O)[O-])cc1)B(O)O [Example 8, (R)-3-methyl-1-((2R,3R,4S,5R)-4-nitro-3-(4-nitrophenyl)-5-phenylpyrrolidine-2-carboxamido)butylboronic acid] | – | 0.15 | 69 | – | – |
| CC(C)C[C@H](NC(=O)[C@@H]1N[C@H](c2ccccc2)[C@@H]([N+](=O)[O-])[C@@H]1c1ccc2ccccc2c1)B(O)O [Example 9, (R)-3-methyl-1-((2R,3R,4S,5R)-3-(naphthalen-2-yl)-4-nitro-5-phenylpyrrolidine-2-carboxamido)butylboronic acid] | – | 0.15 | 69 | – | – |
| CC(C)C[C@H](NC(=O)[C@@H]1N[C@H](c2cccc3ccccc23)[C@@H]([N+](=O)[O-])[C@@H]1c1ccccc1)B(O)O [Example 13, (R)-3-methyl-1-((2R,3R,4S,5R)-5-(naphthalen-1-yl)-4-nitro-3-phenylpyrrolidine-2-carboxamido)butylboronic acid] | – | 0.039 | – | 54 | – |
| CC(C)C[C@H](NC(=O)[C@@H]1N[C@H](c2cccnc2)[C@@H]([N+](=O)[O-])[C@@H]1c1ccccc1)B(O)O [Example 15, (R)-3-methyl-1-((2R,3R,4S,5R)-4-nitro-3-phenyl-5-(pyridin-3-yl)pyrrolidine-2-carboxamido)butylboronic acid] | – | 0.1 | 72 | – | – |
| CC(C)C[C@H](NC(=O)[C@@H]1N[C@H](c2cccc3ccccc23)[C@H]([N+](=O)[O-])[C@H]1c1ccccc1)B(O)O [Example 16, (R)-3-methyl-1-((2R,3S,4R,5R)-5-(naphthalen-1-yl)-4-nitro-3-phenylpyrrolidine-2-carboxamido)butylboronic acid] | – | – | 33 | – | – |
| COC(=O)[C@H]1[C@H](C(=O)OC)[C@H](c2ccccc2)N[C@@H]1C(=O)N[C@@H](CC(C)C)B(O)O [Example 17, (R)-1-((2S,3S,4S,5R)-3,4-bis(methoxycarbonyl)-5-phenylpyrrolidine-2-carboxamido)-3-methylbutylboronic acid] | – | – | 20 | – | – |
| CC(C)C[C@H](NC(=O)[C@H]1N[C@@H](c2ccccc2)[C@H]2C(=O)N(C)C(=O)[C@H]21)B(O)O [Example 18, (R)-3-methyl-1-((1S,3R,3aS,6aR)-5-methyl-4,6-dioxo-3-phenyloctahydropyrrolo[3,4-c]pyrrole-1-carboxamido)butylboronic acid] | 53 | 0.92 | – | – | – |
| CC(C)C[C@H](NC(=O)[C@@H]1N[C@H](c2ccccc2)[C@@H]2C(=O)N(C)C(=O)[C@@H]21)B(O)O [Example 19, (R)-3-methyl-1-((1R,3S,3aR,6aS)-5-methyl-4,6-dioxo-3-phenyloctahydropyrrolo[3,4-c]pyrrole-1-carboxamido)butylboronic acid] | – | 0.046 | – | – | 68 |
